Measurements published in US20100311714A1, “1H-IMIDAZO[4,5-c]QUINOLINONE COMPOUNDS” (priority 2009, published 2010).

Tested on: PKB Ser473 phosphorylation in Rat1-myr-HA-p110 alpha cells
Assay: Reverse protein array, PKB Ser473 phosphorylation in Rat1-myr-HA-p110 alpha cells
Type: cell-based
Conditions: Rattus norvegicus, 0.5 h, 30 minutes compound incubation, read-out: p-PKB/IC50_alpha

COc1cc(-c2ccc3ncc4c(c3c2)n(-c2ccc(F)nc2C)c(=O)n4C)cnc1CO [Example 7.10, 1-(6-Fluoro-2-methyl-pyridin-3-yl)-8-(6-hydroxymethyl-5-methoxy-pyridin-3-yl)-3-methyl-1,3-dihydro-imidazo[4,5-c]quinolin-2-one]
IC50: 123 nM

Cc1nc(N2CC(O)C2)ccc1-n1c(=O)n(C)c2cnc3ccc(-c4cncc(C(C)(C)O)c4)cc3c21 [Example 29.1, 1-[6-(3-Hydroxy-azetidin-1-yl)-2-methyl-pyridin-3-yl]-8-[5-(1-hydroxy-1-methyl-ethyl)-pyridin-3-yl]-3-methyl-1,3-dihydro-imidazo[4,5-c]quinolin-2-one]
IC50: 335 nM

COCc1ncc(-c2ccc3ncc4c(c3c2)n(-c2ccc(F)nc2C)c(=O)n4C)cc1OC [Example 7.7, 1-(6-Fluoro-2-methyl-pyridin-3-yl)-8-(5-methoxy-6-methoxymethyl-pyridin-3-yl)-3-methyl-1,3-dihydro-imidazo[4,5-c]quinolin-2-one]
IC50: 96.1 nM

COc1cc(-c2ccc3ncc4c(c3c2)n(-c2ccc(N3CC(F)(F)C3)nc2C)c(=O)n4C)cnc1CO [Example 24.4, 1-[6-(3,3-Difluoro-azetidin-1-yl)-2-methyl-pyridin-3-yl]-8-(6-hydroxymethyl-5-methoxy-pyridin-3-yl)-3-methyl-1,3-dihydro-imidazo[4,5-c]quinolin-2-one]
IC50: 22.3 nM

COc1cc(-c2ccc3ncc4c(c3c2)n(-c2ccc(N3CCCC3)nc2C)c(=O)n4C)cnc1CO [Example 25.4, 8-(6-Hydroxymethyl-5-methoxy-pyridin-3-yl)-3-methyl-1-(2-methyl-6-pyrrolidin-1-yl-pyridin-3-yl)-1,3-dihydro-imidazo[4,5-c]quinolin-2-one]
IC50: 27.5 nM

COCc1ncc(-c2ccc3ncc4c(c3c2)n(-c2cccnc2C)c(=O)n4C)cc1OC [Example 2.30, 8-(5-Methoxy-6-methoxymethyl-pyridin-3-yl)-3-methyl-1-(2-methyl-pyridin-3-yl)-1,3-dihydro-imidazo[4,5-c]quinolin-2-one]
IC50: 52.2 nM

CNc1ncc(-c2ccc3ncc4c(c3c2)n(-c2ccc(N3CC[C@H](O)C3)nc2C)c(=O)n4C)cc1Cl [Example 32.4, 8-(5-Chloro-6-methylamino-pyridin-3-yl)-1-[6-((S)-3-hydroxy-pyrrolidin-1-yl)-2-methyl-pyridin-3-yl]-3-methyl-1,3-dihydro-imidazo[4,5-c]quinolin-2-one]
IC50: 8 nM

COc1cc(-c2ccc3ncc4c(c3c2)n(-c2ccc(N3CCC(OC)C3)nc2C)c(=O)n4C)cnc1CO (stereo not shown) [Example 28.3, 8-(6-Hydroxymethyl-5-methoxy-pyridin-3-yl)-1-[6-(3-methoxy-pyrrolidin-1-yl)-2-methyl-pyridin-3-yl]-3-methyl-1,3-dihydro-imidazo[4,5-c]quinolin-2-one]
IC50: 44.5 nM

COc1ccc(-n2c(=O)n(C)c3cnc4ccc(-c5cncc(N6CCC6)c5)cc4c32)c(OC)n1 [Example 8.11, 8-(5-Azetidin-1-yl-pyridin-3-yl)-1-(2,6-dimethoxy-pyridin-3-yl)-3-methyl-1,3-dihydro-imidazo[4,5-c]quinolin-2-one]
IC50: < 4.57 nM

CNC(=O)c1ccc(-c2ccc3ncc4c(c3c2)n(-c2cccnc2C)c(=O)n4C)cc1 [Example 2.4, N-Methyl-4-[3-methyl-1-(2-methyl-pyridin-3-yl)-2-oxo-2,3-dihydro-1H-imidazo[4,5-c]quinolin-8-yl]-benzamide]
IC50: 14.6 nM

COc1ccc(-n2c(=O)n(C)c3cnc4ccc(-c5cnc(C(OC)OC)c(OC)c5)cc4c32)c(OC)n1 [Example 8.13, 8-(6-Dimethoxymethyl-5-methoxy-pyridin-3-yl)-1-(2,6-dimethoxy-pyridin-3-yl)-3-methyl-1,3-dihydro-imidazo[4,5-c]quinolin-2-one]
IC50: 208 nM

CNc1ncc(-c2ccc3ncc4c(c3c2)n(-c2ccc(N3CC[C@@H](O)C3)nc2C)c(=O)n4C)cn1 [Example 34.1, 1-[6-((R)-3-Hydroxy-pyrrolidin-1-yl)-2-methyl-pyridin-3-yl]-3-methyl-8-(2-methylamino-pyrimidin-5-yl)-1,3-dihydro-imidazo[4,5-c]quinolin-2-one]
IC50: 13 nM

Cc1ncccc1-n1c(=O)n(C)c2cnc3ccc(-c4cnc5[nH]ccc5c4)cc3c21 [Example 2.8, 3-Methyl-1-(2-methyl-pyridin-3-yl)-8-(1H-pyrrolo[2,3-b]pyridin-5-yl)-1,3-dihydro-imidazo[4,5-c]quinolin-2-one]
IC50: 6.84 nM

Cc1nc(N2CCC(O)C2)ccc1-n1c(=O)n(C)c2cnc3ccc(-c4cncc(C(C)(C)O)c4)cc3c21 (stereo not shown) [Example 27.5, 8-[5-(1-Hydroxy-1-methyl-ethyl)-pyridin-3-yl]-1-[6-(3-hydroxy-pyrrolidin-1-yl)-2-methyl-pyridin-3-yl]-3-methyl-1,3-dihydro-imidazo[4,5-c]quinolin-2-one]
IC50: 160 nM

CCNc1cc(-c2ccc3ncc4c(c3c2)n(-c2ccc(N3CCCC3)nc2C)c(=O)n4C)cnc1CO [Example 25.5, 8-(5-Ethylamino-6-hydroxymethyl-pyridin-3-yl)-3-methyl-1-(2-methyl-6-pyrrolidin-1-yl-pyridin-3-yl)-1,3-dihydro-imidazo[4,5-c]quinolin-2-one]
IC50: < 4.57 nM

Cc1nc(F)ccc1-n1c(=O)n(C)c2cnc3ccc(-c4cncc(N5CCC5)c4)cc3c21 [Example 7.6, 8-(5-Azetidin-1-yl-pyridin-3-yl)-1-(6-fluoro-2-methyl-pyridin-3-yl)-3-methyl-1,3-dihydro-imidazo[4,5-c]quinolin-2-one]
IC50: 34.4 nM

CCNc1cc(-c2ccc3ncc4c(c3c2)n(-c2ccc(N3CC(F)(F)C(F)(F)C3)nc2C)c(=O)n4C)cnc1CO [Example 35.2, 8-(5-Ethylamino-6-hydroxymethyl-pyridin-3-yl)-3-methyl-1-[2-methyl-6-(3,3,4,4-tetrafluoro-pyrrolidin-1-yl)-pyridin-3-yl]-1,3-dihydro-imidazo[4,5-c]quinolin-2-one]
IC50: 4.6 nM

COc1cc(-c2ccc3ncc4c(c3c2)n(-c2ccc(N3CC[C@H](O)C3)nc2C)c(=O)n4C)cnc1CO [Example 32.7, 8-(6-Hydroxymethyl-5-methoxy-pyridin-3-yl)-1-[6-((S)-3-hydroxy-pyrrolidin-1-yl)-2-methyl-pyridin-3-yl]-3-methyl-1,3-dihydro-imidazo[4,5-c]quinolin-2-one]
IC50: 61.7 nM

COc1ccc(-n2c(=O)n(C)c3cnc4ccc(-c5cnc(CO)c(OC)c5)cc4c32)c(OC)n1 [Example 8.14, 1-(2,6-Dimethoxy-pyridin-3-yl)-8-(6-hydroxymethyl-5-methoxy-pyridin-3-yl)-3-methyl-1,3-dihydro-imidazo[4,5-c]quinolin-2-one]
IC50: 35 nM

CCNc1cc(-c2ccc3ncc4c(c3c2)n(-c2ccc(N(C)CCO)nc2C)c(=O)n4C)cnc1CO [Example 26.3, 8-(5-Ethylamino-6-hydroxymethyl-pyridin-3-yl)-1-{6-[(2-hydroxy-ethyl)-methyl-amino]-2-methyl-pyridin-3-yl}-3-methyl-1,3-dihydro-imidazo[4,5-c]quinolin-2-one]
IC50: < 4.57 nM

CCOc1ccc(-c2ccc3ncc4c(c3c2)n(-c2ccc(N3CCC(O)C3)nc2C)c(=O)n4C)cn1 (stereo not shown) [Example 27.4, 8-(6-Ethoxy-pyridin-3-yl)-1-[6-(3-hydroxy-pyrrolidin-1-yl)-2-methyl-pyridin-3-yl]-3-methyl-1,3-dihydro-imidazo[4,5-c]quinolin-2-one]
IC50: < 4.57 nM

Cn1c(=O)n(-c2cccnc2F)c2c3cc(-c4cnc5[nH]ccc5c4)ccc3ncc21 [Example 6.3, 1-(2-Fluoro-pyridin-3-yl)-3-methyl-8-(1H-pyrrolo[2,3-b]pyridin-5-yl)-1,3-dihydro-imidazo[4,5-c]quinolin-2-one]
IC50: 13.7 nM

CNc1ncc(-c2ccc3ncc4c(c3c2)n(-c2ccc(N3CCC(OC)C3)nc2C)c(=O)n4C)cn1 (stereo not shown) [Example 28.2, 1-[6-(3-Methoxy-pyrrolidin-1-yl)-2-methyl-pyridin-3-yl]-3-methyl-8-(2-methylamino-pyrimidin-5-yl)-1,3-dihydro-imidazo[4,5-c]quinolin-2-one]
IC50: 9.1 nM

COc1cc(-c2ccc3ncc4c(c3c2)n(-c2ccc(N)nc2C)c(=O)n4C)cnc1CO [Example 30.1, 1-(6-Amino-2-methyl-pyridin-3-yl)-8-(6-hydroxymethyl-5-methoxy-pyridin-3-yl)-3-methyl-1,3-dihydro-imidazo[4,5-c]quinolin-2-one]
IC50: 53.6 nM

Cc1nc(N2CCC(O)C2)ccc1-n1c(=O)n(C)c2cnc3ccc(-c4cnc(N)c(C(F)(F)F)c4)cc3c21 (stereo not shown) [Example 27.3, 8-(6-Amino-5-trifluoromethyl-pyridin-3-yl)-1-[6-(3-hydroxy-pyrrolidin-1-yl)-2-methyl-pyridin-3-yl]-3-methyl-1,3-dihydro-imidazo[4,5-c]quinolin-2-one]
IC50: < 4.57 nM
